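Where inhibition never reached the appropriate level, the endpoint shown equals the highest concentration tested. Otherwise, values were interpolated linearly from a five-concentration, 48-hour dose response in 96-well plates. GI50: concentration for 50% inhibition of growth.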 Activity calls are given as the source filed them. Cut-off read from the data, not from the text of the source: active = GI50 up to about 1.1 µM and inactive = higher.
Key:
Assay in all cases: inhibition of tumour cell growth, NCI panel, 48 h
HT-29 = tested on: HT-29
UO-31 = tested on: UO-31
MDA-N = tested on: MDA-N
IGROV-1 = tested on: IGROV-1
BT-549 = tested on: BT-549
Hs-578T = tested on: Hs-578T
DU-145 = tested on: DU-145
HCC 2998 = tested on: HCC 2998
NCI-H522 = tested on: NCI-H522
SNB-75 = tested on: SNB-75
HL-60 = tested on: HL-60
EKVX = tested on: EKVX
UACC-62 = tested on: UACC-62
SR = tested on: SR
TK-10 = tested on: TK-10
SF-268 = tested on: SF-268
CCRF-CEM = tested on: CCRF-CEM
NCI/ADR-RES = tested on: NCI/ADR-RES
NCI-H23 = tested on: NCI-H23
Malme-3M = tested on: Malme-3M
MCF7 = tested on: MCF7
SK-OV-3 = tested on: SK-OV-3
HCT-116 = tested on: HCT-116
NCI-H460 = tested on: NCI-H460
786-0 = tested on: 786-0
SNB-19 = tested on: SNB-19
SF-295 = tested on: SF-295
PC-3 = tested on: PC-3
OVCAR-3 = tested on: OVCAR-3
A549 = tested on: A549
UACC-257 = tested on: UACC-257
ACHN = tested on: ACHN
NCI-H226 = tested on: NCI-H226
OVCAR-4 = tested on: OVCAR-4
HCT-15 = tested on: HCT-15
M14 = tested on: M14
OVCAR-5 = tested on: OVCAR-5
SK-MEL-2 = tested on: SK-MEL-2
KM12 = tested on: KM12
MDA-MB-435 = tested on: MDA-MB-435
SN12C = tested on: SN12C
K562 = tested on: K562
MOLT-4 = tested on: MOLT-4
SW-620 = tested on: SW-620
LOX IMVI = tested on: LOX IMVI
HOP-92 = tested on: HOP-92
U-251 = tested on: U-251
SF-539 = tested on: SF-539
OVCAR-8 = tested on: OVCAR-8
SK-MEL-28 = tested on: SK-MEL-28
CAKI-1 = tested on: CAKI-1
COLO 205 = tested on: COLO 205
HOP-62 = tested on: HOP-62
SK-MEL-5 = tested on: SK-MEL-5
RPMI-8226 = tested on: RPMI-8226
A498 = tested on: A498

SMILES: CC12CCC(=O)N1c1cncnc1N2 (centres undefined)
- GI50 (HT-29): > 10 µM (inactive)
- GI50 (UO-31): > 10 µM (inactive)
- GI50 (MDA-N): > 10 µM (inactive)
- GI50 (IGROV-1): > 10 µM (inactive)
- GI50 (BT-549): > 10 µM (inactive)
- GI50 (Hs-578T): > 10 µM (inactive)
- GI50 (DU-145): > 10 µM (inactive)
- GI50 (HCC 2998): > 10 µM (inactive)
- GI50 (NCI-H522): > 10 µM (inactive)
- GI50 (SNB-75): > 10 µM (inactive)
- GI50 (HL-60): 0.0374 µM (active)
- GI50 (EKVX): > 10 µM (inactive)
- GI50 (UACC-62): > 10 µM (inactive)
- GI50 (SR): > 10 µM (inactive)
- GI50 (TK-10): > 10 µM (inactive)
- GI50 (SF-268): > 10 µM (inactive)
- GI50 (CCRF-CEM): > 10 µM (inactive)
- GI50 (NCI/ADR-RES): > 10 µM (inactive)
- GI50 (NCI-H23): > 10 µM (inactive)
- GI50 (Malme-3M): > 10 µM (inactive)
- GI50 (MCF7): > 10 µM (inactive)
- GI50 (SK-OV-3): > 10 µM (inactive)
- GI50 (HCT-116): > 10 µM (inactive)
- GI50 (NCI-H460): > 10 µM (inactive)
- GI50 (786-0): > 10 µM (inactive)
- GI50 (SNB-19): > 10 µM (inactive)
- GI50 (SF-295): > 10 µM (inactive)
- GI50 (PC-3): > 10 µM (inactive)
- GI50 (OVCAR-3): > 10 µM (inactive)
- GI50 (A549): > 10 µM (inactive)
- GI50 (UACC-257): > 10 µM (inactive)
- GI50 (ACHN): > 10 µM (inactive)
- GI50 (NCI-H226): > 10 µM (inactive)
- GI50 (OVCAR-4): > 10 µM (inactive)
- GI50 (HCT-15): > 10 µM
- GI50 (M14): > 10 µM (inactive)
- GI50 (OVCAR-5): > 10 µM (inactive)
- GI50 (SK-MEL-2): > 10 µM (inactive)
- GI50 (KM12): > 10 µM (inactive)
- GI50 (MDA-MB-435): > 10 µM (inactive)
- GI50 (SN12C): > 10 µM (inactive)
- GI50 (K562): > 10 µM (inactive)
- GI50 (MOLT-4): > 10 µM (inactive)
- GI50 (SW-620): > 10 µM (inactive)
- GI50 (LOX IMVI): > 10 µM (inactive)
- GI50 (HOP-92): > 10 µM (inactive)
- GI50 (U-251): > 10 µM (inactive)
- GI50 (SF-539): > 10 µM (inactive)
- GI50 (OVCAR-8): > 10 µM (inactive)

SMILES: CCCNC(=O)Cn1c2c(c3ccccc31)CCCC2
- GI50 (HT-29): > 100 µM (inactive)
- GI50 (SK-MEL-28): 88.9 µM (inactive)
- GI50 (UO-31): 20 µM (inactive)
- GI50 (MDA-N): 68.7 µM (inactive)
- GI50 (IGROV-1): > 100 µM (inactive)
- GI50 (CAKI-1): 77.1 µM (inactive)
- GI50 (BT-549): 87.7 µM (inactive)
- GI50 (Hs-578T): 23.1 µM (inactive)
- GI50 (HCC 2998): 75.5 µM (inactive)
- GI50 (HL-60): 29.6 µM (inactive)
- GI50 (EKVX): 56.6 µM (inactive)
- GI50 (UACC-62): 45.4 µM (inactive)
- GI50 (SR): 42.8 µM (inactive)
- GI50 (TK-10): > 100 µM (inactive)
- GI50 (SF-268): > 100 µM (inactive)
- GI50 (CCRF-CEM): > 100 µM (inactive)
- GI50 (NCI/ADR-RES): 50.9 µM (inactive)
- GI50 (NCI-H23): 72.3 µM (inactive)
- GI50 (Malme-3M): > 100 µM (inactive)
- GI50 (MCF7): > 100 µM (inactive)
- GI50 (SK-OV-3): 94.8 µM (inactive)
- GI50 (HCT-116): 29.2 µM (inactive)
- GI50 (NCI-H460): 58.2 µM (inactive)
- GI50 (786-0): > 100 µM (inactive)
- GI50 (SNB-19): 36.7 µM (inactive)
- GI50 (SF-295): 38.5 µM (inactive)
- GI50 (PC-3): 63.8 µM (inactive)
- GI50 (OVCAR-3): 36.9 µM (inactive)
- GI50 (A549): 53.8 µM (inactive)
- GI50 (UACC-257): 94 µM (inactive)
- GI50 (ACHN): 34.9 µM (inactive)
- GI50 (OVCAR-4): 45.8 µM (inactive)
- GI50 (HCT-15): 45.2 µM
- GI50 (COLO 205): > 100 µM (inactive)
- GI50 (HOP-62): 78 µM (inactive)
- GI50 (SK-MEL-5): 33.7 µM (inactive)
- GI50 (M14): > 100 µM (inactive)
- GI50 (OVCAR-5): > 100 µM (inactive)
- GI50 (SK-MEL-2): > 100 µM (inactive)
- GI50 (MDA-MB-435): > 100 µM (inactive)
- GI50 (SN12C): 65.2 µM (inactive)
- GI50 (K562): 73.1 µM (inactive)
- GI50 (MOLT-4): 43.6 µM (inactive)
- GI50 (SW-620): 55.6 µM (inactive)
- GI50 (LOX IMVI): > 100 µM (inactive)
- GI50 (HOP-92): > 100 µM (inactive)
- GI50 (RPMI-8226): 40.7 µM (inactive)
- GI50 (SF-539): 37.1 µM (inactive)
- GI50 (A498): 27.8 µM (inactive)
- GI50 (OVCAR-8): > 100 µM (inactive)

From ChEMBL document CHEMBL1201862, “PubChem BioAssay data set” (2004)
